pIC50: −log10 of the molar value.

Results on 20 compounds are retold here after patent publication US20090062277A1, “PHOSPHODIESTERASE 10 INHIBITORS” (priority 2007, published 2009).

The assay addresses T1, mPDE10A7 (Mus musculus, UniProt Q8CA95).
T1 sequence (Q8CA95 446-763 limits assumed): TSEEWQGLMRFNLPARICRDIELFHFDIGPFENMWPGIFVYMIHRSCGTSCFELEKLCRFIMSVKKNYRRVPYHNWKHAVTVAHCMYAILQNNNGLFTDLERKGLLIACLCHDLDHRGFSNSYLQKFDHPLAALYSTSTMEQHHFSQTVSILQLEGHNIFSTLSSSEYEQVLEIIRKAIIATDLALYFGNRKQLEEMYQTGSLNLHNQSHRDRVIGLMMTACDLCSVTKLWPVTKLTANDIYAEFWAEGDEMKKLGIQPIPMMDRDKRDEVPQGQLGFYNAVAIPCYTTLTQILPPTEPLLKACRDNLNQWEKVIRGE
Briefly: mPDE10A7 enzyme inhibition (IMAP fluorescence polarization). The note with it: fluorescein labeled cAMP or cGMP substrate, 30 min at room temperature. The assay is classed as biochemical. Here is the method:
Enzyme Activity. To analyze the enzyme activity, 5 μL of serial diluted mPDE10A7 containing lysate were incubated with equal volumes of diluted (100-fold) fluorescein labeled cAMP or cGMP for 30 min in MDC HE 96-well assay plates (Molecular Devices Corp., Sunnyvale Calif.) at room temperature. Both the enzyme and the substrates were diluted in the following assay buffer: Tris/HCl (pH 8.0) 50 mM, MgCl2 5 mM, 2-mercaptoethanol 4 mM, and BSA 0.33 mg/mL. After incubation, the reaction was stopped by adding 20 μL of diluted (400-fold) binding reagents and was incubated for an hour at room temperature. The plates were counted in an Analyst GT (Molecular Devices) for fluorescence polarization. An IMAP assay kit (Molecular Devices) was used to assess enzyme properties of mPDE10A7. Data were analyzed with SOFTMAX PRO software (Molecular Devices).
Enzyme Inhibition. To check the inhibition profile, 10 μL of serial diluted compounds were incubated with 30 μl of diluted PDE enzymes in a 96-well polystyrene assay plate for 30 min at room temperature. After incubation, 5 μL of the compound-enzyme mixture were aliquoted into a MDC HE black plate, mixed with 5 μl of 100-fold diluted fluorescein labeled substrates (cAMP or cGMP), and incubated for 30 min at room temperature. The reaction was stopped by adding 20 μL of diluted binding reagents and counted in an Analyst GT for fluorescence polarization. The data were analyzed with SoftMax Pro.
(In general: Fluorescence polarisation rises when a labelled molecule tumbles more slowly, as on binding a larger partner.)
With `COc1cc2nncc(-c3ccc(N4CCN(CC5CC5)CC4)nc3)c2cc1OC` [Cpd 17], the pIC50 is 7.99.

The compound `COc1cc2nncc(-c3cnc(N4CCC(C(N)=O)CC4)c(C)c3)c2cc1OC` [Cpd 28] showed a negative-log IC50 (pIC50) of 8.68. Turning to `COc1cc2nncc(-c3ccc(N4CCN(C(=O)C5CC5)CC4)nc3)c2cc1OC` [Cpd 22], the pIC50 is 8.31. Then `COC[C@H]1CCCN1c1ncc(-c2cnnc3cc(OC)c(OC)cc23)cc1Cl` [Cpd 9], with 9.00. `COc1cc2nccc(-c3cnc(N4CCC(C(C)(C)O)CC4)c(C)c3)c2cc1OC` [Cpd 24]: the pIC50 is 8.37. In turn, `COc1cc2cncc(-c3cnc(N4CCC(C(C)(C)O)CC4)c(C)c3)c2cc1OC` [Cpd 12] showed a pIC50 of 7.83. Under `COc1cc2nncc(-c3ccc(N4CCN(c5ncc(Cl)cc5Cl)CC4)nc3)c2cc1OC` [Cpd 14] stands 6.38. For `COc1cc2nncc(-c3cnc(N4CCC(O)(C5CC5)CC4)c(C)c3)c2cc1OC` [Cpd 4, 4-cyclopropyl-1-(5-(6,7-dimethoxycinnolin-4-yl)-3-methylpyridin-2-yl)piperidin-4-ol], the negative-log IC50 (pIC50) is 8.55. Turning to `COc1cc2nncc(-c3cnc(N4CCC(O)(c5ccccn5)CC4)c(Cl)c3)c2cc1OC` [Cpd 8, 1-(3-chloro-5-(6,7-dimethoxycinnolin-4-yl)pyridin-2-yl)-4-(pyridin-2-yl)piperidin-4-ol], the pIC50 is 8.51. Under `CCOC(=O)C1CCN(c2ccc(-c3cnnc4cc(OC)c(OC)cc34)cn2)CC1` [Cpd 30] stands 8.02; under `COc1cc2nncc(-c3ccc(N4CCN(C(C)=O)CC4)nc3)c2cc1OC` [Cpd 18], 8.18; under `COc1cc2nncc(-c3cnc(N4CCC(O)(c5cccnc5)CC4)c(C)c3)c2cc1OC` [Cpd 13], 8.99. Under `COc1cc2nncc(-c3cnc(N4CCC(C)(O)CC4)c(C)c3)c2cc1OC` [Cpd 7, 1-(5-(6,7-dimethoxycinnolin-4-yl)-3-methylpyridin-2-yl)-4-methylpiperidin-4-ol] stands 9.22; under `COc1cc2nncc(-c3ccc(N4CCC(C(=O)N5CCOCC5)CC4)nc3)c2cc1OC` [Cpd 27], 8.25; under `COc1cc2nncc(-c3ccc(N4CCCC4CN(C)C)nc3)c2cc1OC` (centres unmarked) [Cpd 20], 7.22. On to `COc1cc2nncc(-c3ccc(N4CCC(O)(c5ccccn5)CC4)nc3)c2cc1OC` [Cpd 2, 1-(5-(6,7-dimethoxycinnolin-4-yl)pyridin-2-yl)-4-(pyridin-2-yl)piperidin-4-ol], for which the pIC50 was 8.25. Under `COc1cc2nncc(-c3cnc(N4CCN(c5ccc(F)cc5F)CC4)c(C)c3)c2cc1OC` [Cpd 16] stands 7.96.

Regarding `COc1cc2nncc(-c3ccc(N4CCN(c5cccc(C(F)(F)F)c5)CC4)nc3)c2cc1OC` [Cpd 15], the pIC50 was 6.90. Compound `COc1cc2nncc(-c3ccc(N4CCCC4c4cccs4)nc3)c2cc1OC` (centres unmarked) [Cpd 25] showed a pIC50 of 8.13.

Consider `COc1cc2c(-c3ccc(N4CCC(O)(c5ccccc5)CC4)nc3)cnnc2cc1C` [Cpd 35], for which the pIC50 is 6.72.

One may read the pIC50 as −log10 of the IC50, conventionally taken in molar units. Read a high pIC50 as a low IC50.
